Assay results reported in US20240148821A1, “PHARMACEUTICAL USE OF CYCLIC PEPTIDE COMPOUND” (CHUGAI SEIYAKU KABUSHIKI KAISHA, priority 2021, published 2024).
Numbered stars: 1 amine (or outer) side, 2 acyl side, 3 side chain; on linkers, the order of the positions; unused ones are H or OH. Bridge positions count the residues as written; N and C are the ends. Square brackets hold non-standard residues; d marks the D form. Peptide text beside a SMILES is read from it. * marks the point of attachment. hPhe(3-Cl-4-CF3) = N[C@@H](CCc1ccc(C(F)(F)F)c(Cl)c1)C(=O)O; hPhe(3-F,4-CF3) = N[C@@H](CCc1ccc(C(F)(F)F)c(F)c1)C(=O)O; NMePhe(3-CF3) = CN[C@@H](Cc1cccc(C(F)(F)F)c1)C(=O)O; X20 = Cc1cncc(C[C@@H](C(=O)[*:2])N(C)[*:1])c1; NMePhe(4-Me) = CN[C@@H](Cc1ccc(C)cc1)C(=O)O; Phe(2,6-F2) = N[C@@H](Cc1c(F)cccc1F)C(=O)O; NMeGly(cPent) = CN[C@H](C(=O)O)C1CCCC1; Phe(3-I) = N[C@@H](Cc1cccc(I)c1)C(=O)O; Phe(4-F) = N[C@@H](Cc1ccc(F)cc1)C(=O)O; dαMeGly(allyl) = C=CC[C@@](C)(N)C(=O)O; NMeY = CN[C@@H](Cc1ccc(O)cc1)C(=O)O; NMeCha = CN[C@@H](CC1CCCCC1)C(=O)O; NMeChg = CN[C@H](C(=O)O)C1CCCCC1; NMeI = CC[C@H](C)[C@H](NC)C(=O)O; NMeD = CN[C@@H](CC(=O)O)C(=O)O; NMeL = CN[C@@H](CC(C)C)C(=O)O; NMeV = CN[C@H](C(=O)O)C(C)C; d(β3hA) = C[C@@H](N)CC(=O)O; NMeAbu = CC[C@H](NC)C(=O)O; NMeA = CN[C@@H](C)C(=O)O; NMeAib = CNC(C)(C)C(=O)O; Nle = CCCC[C@H](N)C(=O)O; Piperidide = C1CCN(*)CC1; Ac5c = NC1(C(=O)O)CCCC1; Aze = O=C(O)[C@@H]1CCN1; Sar = CNCC(=O)O

The compounds below were run on Human pancreatic cancer cell line AsPC-1 (G12D mutation Kras) (assay: AsPC-1 cell growth inhibition (AsPC-1 CGI)). Settings: read-out: AsPC-1 cell growth inhibition, 50% growth inhibitory concentration (IC50 value); 96 hours, CellTiter-Glo, values classified in ranges.
Format: cell-based
Description: Test compounds were serially dilated with dimethyl sulfoxide, and 200 nL was then dispensed to a U-bottom 96-well plate using Labcyte Echo. […] The cell suspension was dispensed to a. plate containing a test compound at 100 μL per well and incubated at 37° C. in a 5% carbon dioxide gas incubator. 96 hours later, 80 μL of CellTiter-Glo (Promega) was added to each well and fluorescence was measured.

| Structure (SMILES) | IC50 [nM] |
| --- | --- |
| CC[C@H](C)[C@@H]1NC(=O)[C@H](CC(C)C)N(C)C(=O)C[C@@H](C(=O)N(C)C)N(C)C(=O)[C@H]([C@@H](C)CC)N(C)C(=O)C2(CCCC2)NC(=O)[C@@H]2CCCN2C(=O)[C@H](CCc2ccc(C(F)(F)F)c(Cl)c2)NC(=O)CN(C)C(=O)[C@H](CC2CCCCC2)N(C)C(=O)CN(C)C(=O)CN(C)C1=O [Compound 1865] ([NMeL]I[Sar][Sar][NMeCha][Sar][hPhe(3-Cl-4-CF3)]P[Ac5c][NMeI][NMeD]-NMe2; lactam N-11) | ≤ 20 |
| CC[C@H](C)[C@@H]1NC(=O)[C@H](CC(C)C)N(C)C(=O)C[C@@H](C(=O)N2CCCCC2)N(C)C(=O)[C@H](C2CCCC2)N(C)C(=O)C2(CCCC2)NC(=O)[C@@H]2CCCN2C(=O)[C@H](CCc2ccc(C(F)(F)F)c(F)c2)NC(=O)CN(C)C(=O)[C@H](C2CCCC2)N(C)C(=O)[C@@H]2CCN2C(=O)[C@H](C)N(C)C1=O [Compound 1099] ([NMeL]I[NMeA][Aze][NMeGly(cPent)][Sar][hPhe(3-F,4-CF3)]P[Ac5c][NMeGly(cPent)][NMeD]-Piperidide; lactam N-11) | ≤ 20 |
| CC[C@H](C)[C@@H]1NC(=O)[C@H](CC(C)C)N(C)C(=O)C[C@@H](C(=O)N2CCCCC2)N(C)C(=O)[C@H](CC(C)C)NC(=O)C(C)(C)N(C)C(=O)[C@H](Cc2ccc(F)cc2)NC(=O)[C@H](Cc2cccc(I)c2)NC(=O)CN(C)C(=O)[C@H](CC2CCCCC2)N(C)C(=O)CN(C)C(=O)CN(C)C1=O [Compound 711] ([NMeL]I[Sar][Sar][NMeCha][Sar][Phe(3-I)][Phe(4-F)][NMeAib]L[NMeD]-Piperidide; lactam N-11) | > 500 |
| CCCC[C@@H]1NC(=O)[C@H](Cc2c(F)cccc2F)NC(=O)CN(C)C(=O)[C@H](Cc2ccc(OC)cc2)N(C)C(=O)[C@@H]2CCN2C(=O)[C@H](C)N(C)C(=O)[C@H]([C@@H](C)CC)NC(=O)[C@H](CC)N(C)C(=O)C[C@@H](C(=O)N2CCCCC2)N(C)C(=O)[C@H](CC(C)C)NC(=O)C(C)(C)N(C)C1=O [Compound 1187] ([NMeAbu]I[NMeA][Aze][NMeY](Me)[Sar][Phe(2,6-F2)][Nle][NMeAib]L[NMeD]-Piperidide; lactam N-11) | > 500 |
| CC[C@H](C)[C@@H]1NC(=O)[C@H](CC(C)C)N(C)C(=O)C[C@@H](C(=O)N2CCCCC2)N(C)C(=O)[C@H](C2CCCCC2)N(C)C(=O)C2(CCCC2)NC(=O)[C@H](Cc2cncc(C)c2)N(C)C(=O)[C@H](CCc2ccc(C(F)(F)F)c(Cl)c2)NC(=O)CN(C)C(=O)[C@H](CC2CCCCC2)N(C)C(=O)[C@@H]2CCN2C(=O)CN(C)C1=O [Compound 477] ([NMeL]I[Sar][Aze][NMeCha][Sar][hPhe(3-Cl-4-CF3)][X20][Ac5c][NMeChg][NMeD]-Piperidide; lactam N-11) | > 500 |
| C=CC[C@@]1(C)NC(=O)[C@@H]2CCCN2C(=O)[C@H](CCc2ccc(C(F)(F)F)c(Cl)c2)NC(=O)CN(C)C(=O)[C@H](CC2CCCCC2)N(C)C(=O)CN(C)C(=O)CN(C)C(=O)[C@H]([C@@H](C)CC)NC(=O)[C@H](CC(C)C)N(C)C(=O)C[C@@H](C)NC(=O)[C@H](C(C)C)N(C)C1=O [Compound 665] (cyclo(I[Sar][Sar][NMeCha][Sar][hPhe(3-Cl-4-CF3)]P[dαMeGly(allyl)][NMeV][d(β3hA)][NMeL])) | > 500 |
| CC[C@H](C)[C@@H]1NC(=O)[C@H](CC(C)C)N(C)C(=O)C[C@@H](C)NC(=O)[C@H](C(C)C)N(C)C(=O)C2(CCCC2)NC(=O)[C@@H]2CCCN2C(=O)[C@H](CCc2ccc(C(F)(F)F)c(Cl)c2)NC(=O)CN(C)C(=O)[C@H](Cc2cccc(C(F)(F)F)c2)N(C)C(=O)CN(C)C(=O)CN(C)C1=O [Compound 1575] (cyclo([Ac5c][NMeV][d(β3hA)][NMeL]I[Sar][Sar][NMePhe(3-CF3)][Sar][hPhe(3-Cl-4-CF3)]P)) | > 500 |
| CCCC[C@@H]1NC(=O)[C@H](Cc2cccc(I)c2)NC(=O)CN(C)C(=O)[C@H](Cc2ccc(C)cc2)N(C)C(=O)CN(C)C(=O)CN(C)C(=O)[C@H]([C@@H](C)CC)NC(=O)[C@H](CC(C)C)N(C)C(=O)C[C@@H](C(=O)N2CCCCC2)N(C)C(=O)[C@H](CC(C)C)NC(=O)[C@H](C)N(C)C1=O [Compound 232] ([NMeL]I[Sar][Sar][NMePhe(4-Me)][Sar][Phe(3-I)][Nle][NMeA]L[NMeD]-Piperidide; lactam N-11) | > 500 |
| CC[C@H](C)[C@@H]1NC(=O)[C@H](CC(C)C)N(C)C(=O)C[C@@H](C(=O)N2CCCCC2)NC(=O)[C@H](C2CCCCC2)N(C)C(=O)C2(CCCC2)NC(=O)[C@@H]2CCCN2C(=O)[C@H](CCc2ccc(C(F)(F)F)c(Cl)c2)NC(=O)CN(C)C(=O)[C@H](CC2CCCCC2)N(C)C(=O)CN(C)C(=O)CN(C)C1=O [Compound 1274] ([NMeL]I[Sar][Sar][NMeCha][Sar][hPhe(3-Cl-4-CF3)]P[Ac5c][NMeChg]D-Piperidide; lactam N-11) | > 500 |
